# Measured values: paper doi:10.1101/2020.05.11.20064584v1 (medRxiv, 2020)
# Read-outs that look alike come from different tables or passages of the source.
# Key:
# [1] = Rat pharmacokinetics, blood LL-37 by ELISA after gavage; format: in vivo, SD rats; conditions: male, SD, serum, po
# [2] = 6.0E10/kg·day by gavage, end of two weeks, n=5, Mean ± SEM
# rVSV-SARS = conditions: 2 h, 10 ug/ml
# [3] = Acute and subchronic toxicity test in rats; format: in vivo; conditions: SD rats, oral gavage, 100 times of the expected clinical dose
smiles,measurement,setting,value
CC[C@H](C)[C@H](NC(=O)[C@H](CCCCN)NC(=O)[C@H](CCC(=O)O)NC(=O)[C@H](CCCCN)NC(=O)[C@H](CO)NC(=O)[C@H](CCCCN)NC(=O)[C@H](CCCNC(=N)N)NC(=O)[C@H](Cc1ccccc1)NC(=O)[C@H](Cc1ccccc1)NC(=O)[C@H](CC(=O)O)NC(=O)CNC(=O)[C@H](CC(C)C)NC(=O)[C@@H](N)CC(C)C)C(=O)NCC(=O)N[C@@H](CCCCN)C(=O)N[C@@H](CCC(=O)O)C(=O)N[C@@H](Cc1ccccc1)C(=O)N[C@@H](CCCCN)C(=O)N[C@@H](CCCNC(=N)N)C(=O)N[C@H](C(=O)N[C@H](C(=O)N[C@@H](CCC(N)=O)C(=O)N[C@@H](CCCNC(=N)N)C(=O)N[C@H](C(=O)N[C@@H](CCCCN)C(=O)N[C@@H](CC(=O)O)C(=O)N[C@@H](Cc1ccccc1)C(=O)N[C@@H](CC(C)C)C(=O)N[C@@H](CCCNC(=N)N)C(=O)N[C@@H](CC(N)=O)C(=O)N[C@@H](CC(C)C)C(=O)N[C@H](C(=O)N1CCC[C@H]1C(=O)N[C@@H](CCCNC(=N)N)C(=O)N[C@H](C(=O)N[C@@H](CCC(=O)O)C(=O)N[C@@H](CO)C(=O)O)[C@@H](C)O)C(C)C)[C@@H](C)CC)C(C)C)[C@@H](C)CC [LL-37],level at 1 h,[1],0.7 ng/mL
same,level at 2 h,[1],1.65 ng/mL
same,level at 4 h,[1],0.92 ng/mL
same,level at 6 h,[1],0.14 ng/mL
same,CK,[2]; female SD rats,715.56±343.35 U/L
same,TC,[2]; female SD rats,1.30 ± 0.20 mM
same,TG,[2]; female SD rats,0.33 ± 0.07 mM
same,CK,[2]; male SD rats,661.02±93.22 U/L
same,TG,[2]; male SD rats,0.29 ± 0.03 mM
same,"maximum inhibition rate, rVSV-SARS",rVSV-SARS,85%
same,LD50,[3],more than 6 × 10^10 CFU/kg/ day
